For assay [1], the target named is T1, cloned human NMB-preferring receptor (BB1) (Homo sapiens, UniProt P28336).
T1 construct: expressed in transfected cells; membranes prepared from the cells
In words: BB1 binding assay, [125I][Tyr4]bombesin competition on membranes of CHO-K1 cells. Particulars: 60 minutes. The source says:
(§1) The compounds of the invention have been evaluated in receptor binding assays which measure their affinity in a cloned human NMB-preferring receptor (BB1) assay and in a cloned human GRP-preferring receptor (BB2) assay. […] Accordingly they may be useful for the diagnosis, prevention, or treatment of male sexual dysfunction in humans and animals, female sexual dysfunction in humans and animals, anxiety and panic disorders, social phobia, depression, psychoses, sleeping disorders, memory impairment, pulmonary hypertension, lung repair and lung development disorders, cancer including prostate cancer and pancreatic cancer, hepatic porphyria, gastrointestinal secretory disturbances, gastrointestinal disorders including colitis, Crohn's disease and inflammatory bowel disease, emesis, anorexia, pain, seasonal affective disorders, feeding disorders, or pruritus.
In the following experiments, measurement of BB1 and BB2 binding was as follows. CHO-K1 cells stably expressing cloned human NMB (for (BB1 assay) and GRP receptors (for BB2 assay) were routinely grown in Ham's F12 culture medium supplemented with 10% foetal calf serum and 2 mM glutamine. For binding experiments, cells were harvested by trypsinization, and stored frozen at −70° C. in Ham's F12 culture medium containing 5% DMSO until required. On the day of use, cells were thawed rapidly, diluted with an excess of culture medium, and centrifuged for 5 minutes at 2000 g. Cells were resuspended in 50 mM Tris-HCl assay buffer (pH 7.4 at 21° C., containing 0.02% BSA, […] bacitracin, […] chymostatin, […] leupeptin, and 2 mM phosphoramidon), counted, and polytronned (setting 5, 10 sec) before centrifuging for 10 minutes at 28,000 g. The final pellet was resuspended in assay buffer to a final cell concentration of 1.5×10^5/mL. […] Radioactivity bound was determined using a gamma counter.
All competition data was analysed using nonlinear regression utilising iterative curve-plolting procedures in Prism® (GraphPad Software Inc., San Diego, USA). […]

Assay [2] concerns the target T2, cloned human GRP-preferring receptor (BB2) (Homo sapiens, UniProt P30550).
T2 construct: expressed in transfected cells; membranes prepared from the cells
In words: BB2 binding assay, [125I][Tyr4]bombesin competition on membranes of CHO-K1 cells. Particulars: 90 minutes.
Description: as §1
In the following experiments, measurement of BB1 and BB2 binding was as follows. CHO-K1 cells stably expressing cloned human NMB (for (BB1 assay) and GRP receptors (for BB2 assay) were routinely grown in Ham's F12 culture medium supplemented with 10% foetal calf serum and 2 mM glutamine. For binding experiments, cells were harvested by trypsinization, and stored frozen at −70° C. in Ham's F12 culture medium containing 5% DMSO until required. On the day of use, cells were thawed rapidly, diluted with an excess of culture medium, and centrifuged for 5 minutes at 2000 g. Cells were resuspended in 50 mM Tris-HCl assay buffer (pH 7.4 at 21° C., containing 0.02% BSA, […] bacitracin, […] chymostatin, […] leupeptin, and 2 mM phosphoramidon), counted, and polytronned (setting 5, 10 sec) before centrifuging for 10 minutes at 28,000 g. The final pellet was resuspended in assay buffer to a final cell concentration of 1.5×10^5/mL. For binding assays, 200 μL aliquots of membranes were incubated with [^125I][Tyr^4]bombesin (<0.1 nM) in the presence and absence of test compounds (final assay volume 250 μL) for 60 minutes and 90 minutes for NMB and GRP receptors, respectively. Nonspecific binding was defined by 1 μM bombesin. Assays were terminated by rapid filtration under vacuum onto Whatman GF/C filters presoaked in 0.2% PEI for >2 hours, and washed 50 mM Tris-HCl (pH 6.9 at 21° C.; 6×1 mL). Radioactivity bound was determined using a gamma counter.
All competition data was analysed using nonlinear regression utilising iterative curve-plolting procedures in Prism® (GraphPad Software Inc., San Diego, USA). IC50 values were corrected to Ki values using the Cheng-Prusoff equation (Cheng Y., Prusoff W. H., Biochem. Pharmacol. 22: 3099-3108, 1973).

Where [3] appears, read: Table 2, N-acyl derivatives of Intermediate VIa.
Where [4] appears, read: Table 6, N-terminal sulfonamide derivatives.

In patent US20040116440A1, “Bombesin receptor antagonists” (priority 2000, published 2004) one finds IC50 data, which are given here for five compounds.

One may read the IC50 as the point on the concentration scale where inhibition reaches its midpoint. Read a low IC50 as higher potency.

T2 sequence (P30550 whole entry): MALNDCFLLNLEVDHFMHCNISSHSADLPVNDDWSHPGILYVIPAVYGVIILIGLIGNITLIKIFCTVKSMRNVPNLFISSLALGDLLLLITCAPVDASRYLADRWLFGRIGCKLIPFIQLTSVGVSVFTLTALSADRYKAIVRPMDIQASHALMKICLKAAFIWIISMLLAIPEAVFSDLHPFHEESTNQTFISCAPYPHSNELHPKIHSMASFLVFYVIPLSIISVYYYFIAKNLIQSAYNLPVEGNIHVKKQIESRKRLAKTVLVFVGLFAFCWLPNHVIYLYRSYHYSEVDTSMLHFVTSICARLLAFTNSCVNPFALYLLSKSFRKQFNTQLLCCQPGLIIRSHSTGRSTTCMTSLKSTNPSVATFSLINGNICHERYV
T1 sequence (P28336 whole entry): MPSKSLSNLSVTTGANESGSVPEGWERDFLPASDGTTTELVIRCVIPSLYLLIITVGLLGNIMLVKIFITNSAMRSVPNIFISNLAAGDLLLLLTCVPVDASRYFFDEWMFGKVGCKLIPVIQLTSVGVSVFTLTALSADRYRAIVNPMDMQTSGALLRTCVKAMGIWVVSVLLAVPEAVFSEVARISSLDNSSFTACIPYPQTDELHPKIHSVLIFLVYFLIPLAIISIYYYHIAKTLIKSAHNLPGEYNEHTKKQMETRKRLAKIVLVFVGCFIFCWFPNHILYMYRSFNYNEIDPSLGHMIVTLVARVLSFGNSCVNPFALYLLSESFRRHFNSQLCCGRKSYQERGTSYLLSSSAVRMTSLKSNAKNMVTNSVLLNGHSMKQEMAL

“Dimethylamino-N {(S)-2-(1H-indol-3-yl)-1-methyl-1-[(1-pyridin-2-yl-cyclohexyl-methyl)-carbamoyl]-ethyl}-benzamide [Example 11]” yielded a 50% inhibitory concentration (IC50) in assay [1] (setting [3]) of 2520 nM. The compound `C[C@@](Cc1c[nH]c2ccccc12)(NS(=O)(=O)c1cc(Cl)sc1Cl)C(=O)NCC1(c2ccccn2)CCCCC1` [Example 126, (S)-2-(2,5-Dichloro-thiophene-3-sulfonylamino)-3-(1H-indol-3-yl)-2-methyl-N-(1-pyridin-2-yl-cyclohexylmethyl)-propionamide] registered an IC50 in assay [2] (setting [4]) of more than 10000 nM. As to `C[C@@](Cc1c[nH]c2ccccc12)(NS(=O)(=O)c1cc(C(F)(F)F)ccc1Cl)C(=O)NCC1(c2ccccn2)CCCCC1` [Example 135, (S)-2-(2-Chloro-5-trifluoromethyl-benzenesulfonylamino)-3-(1H-indol-3-yl)-2-methyl-N-(1-pyridin-2-yl-cyclohexylmethyl)-propionamide], the IC50 in assay [2] (setting [4]) was more than 10000 nM; in assay [1] (setting [4]), 627 nM. As for `Cc1ccccc1CC(=O)N[C@@](C)(Cc1c[nH]c2ccccc12)C(=O)NCC1(c2ccccn2)CCCCC1` [Example 20, (S)-3-(1H-Indol-3-yl)-2-methyl-N-(1-pyridin-2-yl-cyclohexylmethyl)-2-(2-o-tolyl-ethanoylamino)-propionamide], the IC50 in assay [2] (setting [3]) is more than 10000 nM.

On to `C[C@@](Cc1c[nH]c2ccccc12)(NS(=O)(=O)c1ccc(C(F)(F)F)cc1[N+](=O)[O-])C(=O)NCC1(c2ccccn2)CCCCC1` [Example 136, (S)-3-(1H-Indol-3-yl)-2-methyl-2-(2-nitro-4-trifluoromethyl-benzenesulfonylamino)-N-(1-pyridin-2-yl-cyclohexylmethyl)-propionamide], for which the IC50 in assay [2] (setting [4]) was more than 10000 nM; in assay [1] (setting [4]) it was 758 nM.
